Structures can show the parent of a compound that is named as a salt.
What was measured:
beagle dogs = experiment: Antiemetic activity against cisplatin in beagle dogs; type: in vivo; conditions: cisplatin 3 mg/kg i.v., 5 hours
Description: Antiemetic activity of test compound against cisplatin was determined in beagle dogs. Dogs are pretreated I.V. with a test compound dissolved in DMSO thirty minutes before administration of cisplatin 3 mg/kg.i.v. with a second dose of compounds given i.v. two hours after cisplatin administration. Emetic episodes are counted for 5 hours following cisplatin administration.
Per cent inhibition of emesis for each animal is determined by the following formula: [formula] A mean per cent inhibition of emesis is determined for at least 4 dogs.

rats = experiment: Rat gastric emptying of a test meal; type: in vivo, Male Charles River Rats, Crl: COBS, CD (SD) BR Strain; conditions: 30 min before test meal, 60 min after meal
Description: A test meal for measuring gastric emptying in rats was prepared. Ten grams of methylcellulose (2% solution=15 centipoises; Aldrich Chemical Company, Milwaukee, Wis.) was added to 200 ml of cold water and mixed at 20,000 rpm in a Waring blender to insure dispersion and hydration of the methylcellulose. In addition, two beef bouillon cubes (Wyler's, Columbus, Ohio) dissolved in 100 ml of warm water was added to the mixture, followed by 16 g of casein (Hammersten, Schwartz/Mann, Orangeburg, N.Y.), 8 g of powdered confectioners sugar and 8 g of cornstarch. The ingredients were mixed for two minutes at 20,000 rpm and the resultant test meal was refrigerated for 48 hours to allow trapped air to escape.
Male Charles River Rats, Crl: COBS, CD (SD) BR Strain, 180-200 g body weight, were used in groups of six animals. The animals were food deprived for 24 hours prior to the experiment with access to water ad libitum. The compounds to be evaluated were prepared in a 0.5% aqueous methylcellulose solution. If insoluble, the mixture was homogenized for two minutes at 5500 rpm using a Try-R-Stir-R. The compounds were injected intraperitoneally at a volume of 5 ml/kg, 30 minutes before the test meal, (3.0 ml/rat i.g.). Control animals received only the vehicle. Sixty minutes after the test meal, the rats were sacrificed by cervical dislocation. The stomachs were removed intact and weighed. The stomachs were kept opened, gently rinsed with tap water, blotted dry with paper towelling, and the empty stomach weighed. The difference between the weight of the full and empty stomach is indicative of the amount of meal remaining in the stomach. The amount of meal remaining in the stomach was subtracted from the weight of 3 ml of the test meal to determine the amount of food emptied from the stomach during the test. Weight of the test meal was determined by weighing three samples (3 ml) at the beginning and three samples at the end of each experiment and calculating the mean. The mean and standard error of the amount of meal emptied were calculated.

gastric antrum = experiment: Antral motility in conscious fasted dogs; type: in vivo, Mongrel dogs; conditions: 60 min after injection relative to Phase III of MMC
Description: This contractile activity is thought to enhance gastric emptying by more rapidly reducing food particle size for passage through the pylorus.
Mongrel dogs of either sex were surgically implanted with strain gauge force transducers on the gastric antrum at 6 cm, 4 cm and 2 cm from the gastroduodenal junction. The dogs were allowed two weeks to recover and were trained to stand quietly in Pavlov slings.
Dogs were fasted for 18 to 24 hours prior to each experiment to record a pattern of antral contractile activity characteristic of the fasted state called the Migrating Motor Complex (MMC). The period of the MMC cycle is approximately 90 to 120 minutes and consists of 45 to 60 minutes of motor quiescence (Phase I) 30 to 45 minutes of intermittent activity (Phase II) and 10 to 15 minutes of intense contractile activity (Phase III). A control MMC period is recorded prior to compound administration to obtain the length of the quiescent Phase I period. Compound is given intravenously at the end of Phase III of the control MMC cycle and a subsequent Phase I period is examined for the ability of the compound to produce contractions. A response index is calculated as the mean 10 minute motility index for 60 minutes following injection of test compound divided by the 10 minute motility index obtained for the previous Phase III period of the MMC. The response index represents an estimate of the fraction of maximal antral motor activity produced by the compound.

5-HT3 = experiment: Bezold-Jarisch Reflex test (5-HT induced bradycardia in pentobarbital anesthetized mice); type: in vivo; conditions: 5-HT 0.25 mg/kg i.v. induced bradycardia, 30 min
Description: 5-HT3 antagonism can be determined for a compound by subjecting the compound to a Bezold-Jarisch Reflex test which is described and reported by Saxena, P.R., and Lawang, A.; Arch. Int.
The test compound is administered i.p. (mg/kg) to a group of 3 mice. Thirty minutes later a 5-HT (0.25 mg/kg i.v.) induced bradycardia is recorded in pentobarbital anesthetized animals.

| SMILES | % INHIBITION OF CISPLATIN EMESIS (beagle dogs; 0.3 mg/kg iv) [%] | % INHIBITION OF CISPLATIN EMESIS (beagle dogs; 1.0 mg/kg iv) [%] | % INCREASE IN GASTRIC EMPTYING (rats; 1.0 mg/kg ip) [%] | % INCREASE IN GASTRIC EMPTYING (rats; 3.0 mg/kg ip) [%] | % INCREASE IN GASTRIC EMPTYING (rats; 10.0 mg/kg ip) [%] | RESPONSE INDEX (gastric antrum; 0.1 mg/kg iv) | RESPONSE INDEX (gastric antrum; 0.3 mg/kg iv) | RESPONSE INDEX (gastric antrum; 1.0 mg/kg iv) | % INHIBITION (5-HT3; 2.5 mg/kg ip) [%] | % INHIBITION (5-HT3; 5.0 mg/kg ip) [%] | % INHIBITION (5-HT3; 10.0 mg/kg ip) [%] | % INHIBITION OF CISPLATIN EMESIS (beagle dogs; 3.0 mg/kg iv) [%] | RESPONSE INDEX (gastric antrum; 3.0 mg/kg iv) | % INHIBITION OF CISPLATIN EMESIS (beagle dogs; .005 mg/kg iv) [%] | % INHIBITION OF CISPLATIN EMESIS (beagle dogs; .05 mg/kg iv) [%] |
| --- | --- | --- | --- | --- | --- | --- | --- | --- | --- | --- | --- | --- | --- | --- | --- |
| COc1cc(N)c(Cl)cc1C(=O)NC1CCN(CCCOc2ccc(F)cc2)CC1OC (centres unmarked) [Cisapride, cisapride] | -2.3 | 91.0 | 9.8 | 15.4 | 25.0 | 0.45 | 0.54 | 0.41 | 49 | 54 | 78 | – | – | – | – |
| CCN(CC)CCNC(=O)c1cc(Cl)c(N)cc1OC [Metoclopramide, metoclopramide] | 19.5 | – | 2.6 | 11.2 | 34.1 | – | – | 0.23 | – | – | 40 | 99.9 | 0.65 | – | – |
| COc1cc(N)c(Cl)cc1C(=O)NC[C@H]1CCN2CCC[C@@H]12 (relative stereo) [Example 7, trans-4-amino-5-chloro-N-[(hexahydro-1H-pyrrolizin-1-yl)-methyl]-2-methoxybenzamide,dihydrochloride] | – | – | 3.1 | 0.9 | -6.9 | – | – | – | 55 | 61 | 86 | – | 0.40 | – | – |
| CN1C2CCC1CC(OC(=O)c1c[nH]c3ccccc13)C2 (centres unmarked) [ICS 205-930] | – | – | – | – | – | – | – | – | – | – | – | – | – | 60.8 | 100.0 |
| COc1cc(N)c(Cl)cc1C(=O)NC[C@@H]1CCN2CCC[C@@H]12 (relative stereo) [Example 5, cis-4-amino-5-chloro-N-[(hexahydro-1H-pyrrolizin-1-yl)methyl]-2-methoxybenzamide,dihydrochloride] | 27.0 | – | 2.5 | 9.4 | 15.8 | – | 0.37 | 0.49 | – | 47 | 85 | 95.5 | 0.58 | – | – |

Source: patent US4992461A, “N-azabicyclo(3.3.0)octane amides of aromatic acids, compositions, and methods of use thereof” (G. D. Searle & Co., priority 1989, dated 1991)
